Measured values from patent publication US20220251096A1, “7,8-DIHYDRO-4H-PYRAZOLO[4,3-c]AZEPINE-6-ONE COMPOUNDS” (Eli Lilly and Company, priority 2019, published 2022).
pIC50, pKd: −log10 of the molar value. Values joined by “and” are separate entries in the source; they are usually repeats but may differ in a detail not shown here. Identical values can stand only once.

Columns and labels:
[1] = tested on: KG-1; test: Cell growth inhibition assay, KG-1; format: cell-based; conditions: Homo sapiens, 168 h; KG-1, 7 days
Description: (§1) Tumor cell lines are plated onto 96-well, black wall poly-D-lysine plates (Corning #354640), and incubated at 37° C., 5% CO2 for 18-24 hours. Compound was added at 1:3 dilutions in DMSO and cells were incubated at 37° C., 5% CO2 for 7 days. For adherent cell lines, cells were fixed and stained with propidium iodide and scanned on Acumen (channel 3 setting). For suspension cell lines, cell growth was monitored using Cell Titer-Glo reagent.

[2] = tested on: NCI-H211; test: Cell growth inhibition assay, NCI-H211; format: cell-based; conditions: Homo sapiens, 168 h; NCI-H211, 7 days
Description: as §1

[3] = tested on: 22Rv1 prostate cancer cells; test: Cell proliferation assay in 22Rv1; format: cell-based; conditions: 22Rv1, 7 days
Description: The purpose of the following cell proliferation assay is to detect whether the compound of Example 2 and combinations thereof have an effect on cell proliferation.
22Rv1 (purchased from ATCC CRL-2505) cells are seeded at a density of 1,000 cells per well in RMPI 10% FBS (20 μL volume) into a clear bottom 384-well cell culture plate. The plate is incubated at 37° C. and 5% CO2. The cells are dosed the following day with the compound of Example 2 and the compound of Example 2 in combination with the known anti-cancer therapeutics found in the table below. An Echo 555 acoustic dispenser is used to prepare serial dilutions (1:3) of the compound of Example 2, and combinations thereof, in concentrations ranging from 60 μM to 0.003 μM. The cells are then dosed by addition of 5 μL from the serial dilution plate to the cell plate, producing a final DMSO concentration of 0.2% with a final concentration dose ranging from 20 μM to 0.001 μM for the compound of Example 2 and combinations thereof.
Media containing 0.2% DMSO is used for the maximum point and 2 μM staurosporine in the growth media containing 0.2% DMSO is used for the minimum point. After dosing with the compound of Example 2 and combinations thereof, the cell plates are incubated at 37° C. and 5% CO2. Seven days after test compound addition, plates are removed from the incubator and cold EtOH (96%, 65 μL) is added to each well. After 30 minutes, the media is removed and RNase (20 μL, 50 μg/mL) (Sigma) and a 1:1000 propidium iodide dilution in PBS are added to each well. The plates are sealed and incubated for 1 hour at room temperature and preserved from light. Plates are then scanned with ACUMEN EXPLORER™ [Laser-scanning fluorescence microplate cytometer manufactured by TTP LABTECH LTD]. The number of 22Rv1 cells is evaluated through an estimated number of cells, calculated through the area parameter (ratio of total area of the total cells population), a designated range of peak intensity of FL-3 (PI), and the mean area of the single cell population defined by perimeter. Data is then processed through an NGR screening tool. Data is analyzed using a 4-parameter nonlinear logistic equation (four-parameter logistic concentration-response curve): Y=bot+[(top−bot)/1+(x/IC50)slope] where Y=% inhibition, X=concentration yielding y % inhibition, “bot”=minimum value of y attained by curve, “top”=maximum value of y attained by curve, and “slope”=steepness of curve at IC50. % Inh=[(median Max−x/median Max−median Min)]·100.

[4] = tested on: NCI-H1048; test: Cell growth inhibition assay, NCI-H1048; format: cell-based; conditions: Homo sapiens, 168 h; NCI-H1048, 7 days
Description: as §1

[5] = tested on: EOL-1; test: Cell growth inhibition assay, EOL-1; format: cell-based; conditions: Homo sapiens, EOL1, 168 h; EOL-1, 7 days
Description: as §1

[6] = tested on: MOLM-16; test: Cell growth inhibition assay, MOLM-16; format: cell-based; conditions: MOLM16, 168 h; MOLM-16, 7 days
Description: as §1

[7] = tested on: OCI-AML3; test: Cell growth inhibition assay, OCI-AML3; format: cell-based; conditions: Homo sapiens, OCI-AML-3, 168 h; OCI-AML3, 7 days
Description: as §1

[8] = biological target: T1, BRD4 (BD1) (Homo sapiens, UniProt O60885); test: BromoKdELECT platform assay, BRD4 (BD1); format: binding; conditions: 11 points dose-response, mean from a duplicate experiment
T1 construct: BRD4 (Bromodomain 1 (BD1) and Bromodomain 2 (BD2)); purchased DiscoverX (BromoKdELECT service)
Text: The purpose of this assay is to evaluate the in vitro target engagement and selectivity (https://www.discoverx.com/services/drug-discovery-development-services/epigenetic-profiling/bromoscan-epigenetic-profiling/bromokdelect). Assay measurement is based on the amount of bromodomain captured in test and control samples by using quantitative PCR technology that detects the DNA label associated to bromodomain. Compounds that bind the bromodomain active site prevents its binding to the immobilized ligand and will reduce the amount of bromodomain captured on the solid support. […] Thus, compound activity is monitored by measuring the amount of bromodomain captured in test versus control samples by using qPCR. Binding affinity for test compound-bromodomain interactions are calculated by measuring the amount of bromodomain captured on the solid support as a function of the test compound concentration.
Binding affinity (Kd) of the compounds of Examples 1 and 2 towards CREBBP, EP300 and BRD4 (Bromodomain 1 (BD1) and Bromodomain 2 (BD2)) are determined in an 11 points dose-response study (See Table 5). Data is represented as a mean from a duplicate experiment.

[9] = tested on: THP-1; test: Cell growth inhibition assay, THP-1; format: cell-based; conditions: Homo sapiens, 168 h; THP-1, 7 days
Description: as §1

[10] = tested on: KG-1a; test: Cell growth inhibition assay, KG-1a; format: cell-based; conditions: Homo sapiens, 168 h, 7 days
Description: as §1

[11] = tested on: HL-60; test: Cell growth inhibition assay, HL-60; format: cell-based; conditions: Homo sapiens, 168 h; HL-60, 7 days
Description: as §1

pIC50 [2]: 7.19 | pIC50 [4]: 7.74 | pIC50 [6]: 6.89 | pIC50 [7]: 6.65 | pKd [8]: 5.58 | pIC50 [9]: 7.54 | pIC50 [11]: 6.48
Structure (SMILES): CCNC(=O)c1ccc(-c2cc3cccc(-c4nn(C)c5c4CN(C)C(=O)CC5)c3cn2)cn1 [Example 2, 5-[8-(1,5-Dimethyl-6-oxo-7,8-dihydro-4H-pyrazolo[4,3-c]azepin-3-yl)-3-isoquinolyl]-N-ethyl-pyridine-2-carboxamide]
pIC50 [1]: 7.08 | Cell Proliferation % Inhibition ([3]; single agent at 120 nM, 0.12 µM): 9.62% | Cell Proliferation % Inhibition ([3]; single agent at 370 nM, 0.37 µM): 18.68% and 31.53% | inhibition at 0.12 µM ([3]; Homo sapiens, 22Rv1, 168 h, single agent at 120 nM): 17.4% | inhibition at 0.37 µM ([3]; Homo sapiens, 22Rv1, 168 h, single agent at 370 nM): 35.4% | inhibition at 0.74 µM ([3]; Homo sapiens, 22Rv1, 168 h, single agent at 740 nM): 12.2% | inhibition at 2.2 µM ([3]; Homo sapiens, 22Rv1, 168 h, single agent at 2.2 μM): 19.3% | inhibition at 3.3 µM ([3]; Homo sapiens, 22Rv1, 168 h, single agent at 3.3 μM): 46.3% | pIC50 [5]: 9.00 | pIC50 [10]: 8.70
